# Measured values taken from ChEMBL document CHEMBL1201862, “PubChem BioAssay data set” (2004).
# Activity calls are given as the source filed them.
# Key:
# Escherichia coli = assay: microbe, parasite or virus in culture
# [1] = viability of HCT116 lacking mutant beta-catenin – cell-based, human colon tumor, dose response (AID 1045); assay type: functional;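 further: HCT116 colon tumor cells with beta catenin knocked out; cells exposed to compound for 60 hours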
# [2] = biological target: T1, Fructose-bisphosphate aldolase (Mycobacterium tuberculosis, UniProt P9WQA3); assay: Fluorescence-based biochemical high throughput dose response assay for inhibitors of the fructose-bisphosphate aldolase (FBA) of M. tuberculosis.; assay type: functional
# T1 sequence (P9WQA3 whole entry): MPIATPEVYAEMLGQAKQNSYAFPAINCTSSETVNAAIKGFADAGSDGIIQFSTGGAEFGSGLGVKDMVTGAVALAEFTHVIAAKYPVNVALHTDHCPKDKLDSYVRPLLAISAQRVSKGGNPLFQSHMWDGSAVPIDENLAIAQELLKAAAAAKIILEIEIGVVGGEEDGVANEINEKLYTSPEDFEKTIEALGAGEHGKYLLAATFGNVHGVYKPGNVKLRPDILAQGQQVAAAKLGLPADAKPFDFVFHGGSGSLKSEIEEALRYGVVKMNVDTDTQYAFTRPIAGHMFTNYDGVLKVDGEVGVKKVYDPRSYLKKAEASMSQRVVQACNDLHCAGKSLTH
# [3] = viability of PTEN-deleted HCT116 cells – cell-based, HCT116 PTEN knockout, dose response (AID 1047); assay type: functional;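 further: HCT116 colon tumor cells with PTEN knocked out; cells exposed to compound for 60 hours before readout; potency for loss of cell viability measured by luminescence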
# cells [4] = assay type: functional, cell-based
# cells [5] = assay type: functional, cell-based; remark: listed apart in the source
# [6] = biological target: Intestinal-type alkaline phosphatase (Mus musculus, UniProt P24822); assay: PubChem AID 488785; assay type: functional
# Sequence of Intestinal-type alkaline phosphatase (Mus musculus, UniProt P24822) (P24822 whole entry): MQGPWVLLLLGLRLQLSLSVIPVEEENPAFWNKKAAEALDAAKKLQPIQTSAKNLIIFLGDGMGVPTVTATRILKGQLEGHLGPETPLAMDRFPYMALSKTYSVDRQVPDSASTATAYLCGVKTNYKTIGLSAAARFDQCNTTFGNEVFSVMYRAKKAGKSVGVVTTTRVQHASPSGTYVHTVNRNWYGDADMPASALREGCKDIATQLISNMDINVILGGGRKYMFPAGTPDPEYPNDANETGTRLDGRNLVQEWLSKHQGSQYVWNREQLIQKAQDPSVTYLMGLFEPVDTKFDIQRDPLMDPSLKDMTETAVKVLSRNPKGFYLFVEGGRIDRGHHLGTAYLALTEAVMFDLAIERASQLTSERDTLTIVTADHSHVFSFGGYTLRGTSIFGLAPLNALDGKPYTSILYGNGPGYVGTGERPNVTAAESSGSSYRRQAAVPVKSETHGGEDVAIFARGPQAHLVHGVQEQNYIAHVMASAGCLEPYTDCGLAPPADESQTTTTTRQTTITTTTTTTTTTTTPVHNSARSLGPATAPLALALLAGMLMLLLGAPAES
# [7] = biological target: Intestinal-type alkaline phosphatase (Homo sapiens, UniProt P09923); assay: inhibition of human intestinal alkaline phosphatase – biochemical, dose response (AID 488876); assay type: functional
# Sequence of Intestinal-type alkaline phosphatase (Homo sapiens, UniProt P09923) (P09923 whole entry): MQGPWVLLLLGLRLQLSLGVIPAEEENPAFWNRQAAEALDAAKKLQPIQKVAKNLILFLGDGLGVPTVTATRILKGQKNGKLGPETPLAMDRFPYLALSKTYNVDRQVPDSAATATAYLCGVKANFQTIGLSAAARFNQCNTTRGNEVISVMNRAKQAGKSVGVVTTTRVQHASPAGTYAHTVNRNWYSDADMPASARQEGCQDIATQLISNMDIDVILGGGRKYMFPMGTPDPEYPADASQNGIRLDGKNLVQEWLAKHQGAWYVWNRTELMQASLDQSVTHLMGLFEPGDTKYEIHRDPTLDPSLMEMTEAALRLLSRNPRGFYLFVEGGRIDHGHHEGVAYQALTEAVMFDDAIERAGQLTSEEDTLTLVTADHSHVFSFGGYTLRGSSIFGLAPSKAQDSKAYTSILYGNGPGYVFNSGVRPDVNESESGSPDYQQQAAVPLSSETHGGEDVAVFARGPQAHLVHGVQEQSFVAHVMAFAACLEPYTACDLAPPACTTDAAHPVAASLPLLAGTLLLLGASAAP
# [8] = biological target: T2, Alkaline phosphatase, tissue-nonspecific isozyme (Homo sapiens, UniProt P05186); assay: TNAP enzyme inhibition by screening hits, dose response, selectivity assay for mouse IAP inhibitor project, biochemical, human TNAP, uHTS hits (AID 488906); assay type: functional
# T2 sequence (P05186 whole entry): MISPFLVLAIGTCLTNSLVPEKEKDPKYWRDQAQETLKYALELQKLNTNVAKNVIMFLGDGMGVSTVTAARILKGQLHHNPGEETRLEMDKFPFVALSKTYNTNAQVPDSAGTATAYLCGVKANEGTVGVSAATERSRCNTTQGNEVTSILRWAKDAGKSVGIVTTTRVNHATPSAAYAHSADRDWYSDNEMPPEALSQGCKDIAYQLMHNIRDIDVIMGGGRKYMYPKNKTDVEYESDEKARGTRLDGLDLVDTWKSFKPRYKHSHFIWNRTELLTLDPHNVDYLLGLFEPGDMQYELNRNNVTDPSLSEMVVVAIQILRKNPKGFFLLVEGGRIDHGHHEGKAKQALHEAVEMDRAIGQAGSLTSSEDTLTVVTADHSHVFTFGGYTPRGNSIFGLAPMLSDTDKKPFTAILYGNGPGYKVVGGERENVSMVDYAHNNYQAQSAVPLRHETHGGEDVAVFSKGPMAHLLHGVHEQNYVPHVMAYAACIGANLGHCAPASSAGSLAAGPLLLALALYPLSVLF
# [9] = biological target: Disintegrin and metalloproteinase domain-containing protein 17 (Homo sapiens, UniProt P78536); assay: inhibition of ADAM17 substrate cleavage – biochemical, quenched FRET substrate, counter-screen for ADAM10 exosite inhibitor project, dose response (AID 743253)
# Sequence of Disintegrin and metalloproteinase domain-containing protein 17 (P78536 whole entry, the tested form may be a part): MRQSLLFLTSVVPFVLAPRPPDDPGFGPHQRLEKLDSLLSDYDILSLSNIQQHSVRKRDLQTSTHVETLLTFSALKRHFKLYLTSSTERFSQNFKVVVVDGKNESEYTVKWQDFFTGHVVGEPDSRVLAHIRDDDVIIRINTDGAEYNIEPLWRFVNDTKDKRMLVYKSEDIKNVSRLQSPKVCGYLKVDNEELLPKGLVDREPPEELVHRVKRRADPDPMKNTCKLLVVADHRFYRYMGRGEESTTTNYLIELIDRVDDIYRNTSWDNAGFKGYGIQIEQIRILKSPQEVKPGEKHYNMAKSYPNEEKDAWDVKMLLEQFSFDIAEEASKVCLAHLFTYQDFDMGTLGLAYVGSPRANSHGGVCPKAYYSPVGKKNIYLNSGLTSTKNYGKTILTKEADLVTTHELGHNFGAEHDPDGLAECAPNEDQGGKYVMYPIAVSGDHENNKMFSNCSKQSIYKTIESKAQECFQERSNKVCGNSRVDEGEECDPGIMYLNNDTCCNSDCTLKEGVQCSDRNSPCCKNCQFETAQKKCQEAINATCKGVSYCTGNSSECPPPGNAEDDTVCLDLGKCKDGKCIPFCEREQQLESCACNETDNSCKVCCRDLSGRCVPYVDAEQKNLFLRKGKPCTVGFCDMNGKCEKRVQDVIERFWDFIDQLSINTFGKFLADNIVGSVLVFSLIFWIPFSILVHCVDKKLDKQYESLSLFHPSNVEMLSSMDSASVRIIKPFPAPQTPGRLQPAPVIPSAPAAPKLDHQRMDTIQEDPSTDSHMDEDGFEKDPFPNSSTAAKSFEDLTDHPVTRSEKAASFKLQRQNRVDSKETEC
# [10] = potency of ADAM10 substrate cleavage blockers – biochemical, QFRET, dose response (AID 743254);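 further: ADAM10 enzyme with the DM2 quenched FRET peptide as substrate; EDANS fluorescence gain as the protease cuts the substrate; inhibitor potency against ADAM10 proteolytic activity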
# [11] = biological target: T3, Small ubiquitin-related modifier 1 (Homo sapiens, UniProt P63165); assay: SUMO1 protein-protein binding blockers, potency – biochemical, FRET, dose response (AID 624383); assay type: functional; details: read-out: IC50_Mean
# T3 sequence (P63165 whole entry): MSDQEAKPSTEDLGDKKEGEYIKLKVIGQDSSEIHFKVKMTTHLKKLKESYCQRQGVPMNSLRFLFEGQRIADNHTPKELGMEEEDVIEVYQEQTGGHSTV
# [12] = biological target: T3, Small ubiquitin-related modifier 1; assay: SUMO1 protein interaction blockers, potency – biochemical, fluorescence polarization, uHTS hits, dose response (AID 624382); assay type: functional; details: read-out: IC50_Mean
# [13] = biological target: T2, Alkaline phosphatase, tissue-nonspecific isozyme; assay: potency against alkaline phosphatase TNAP – biochemical, luminescent, dose response, SAR follow-up (AID 1056)
# [14] = biological target: Glyceraldehyde-3-phosphate dehydrogenase (Homo sapiens, UniProt P04406)
# Sequence of Glyceraldehyde-3-phosphate dehydrogenase (P04406 whole entry): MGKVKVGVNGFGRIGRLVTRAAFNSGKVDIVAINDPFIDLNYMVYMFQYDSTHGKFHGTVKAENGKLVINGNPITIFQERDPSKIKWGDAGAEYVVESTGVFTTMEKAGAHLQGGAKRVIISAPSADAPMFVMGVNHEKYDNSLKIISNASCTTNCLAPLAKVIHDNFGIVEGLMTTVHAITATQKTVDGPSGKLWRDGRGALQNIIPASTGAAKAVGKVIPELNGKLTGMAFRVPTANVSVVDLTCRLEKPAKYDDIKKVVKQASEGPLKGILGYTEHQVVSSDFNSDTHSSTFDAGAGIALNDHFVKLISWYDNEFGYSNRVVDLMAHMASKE
# [15] = biological target: T4, Sentrin-specific protease 8 (Homo sapiens, UniProt Q96LD8); assay type: functional
# T4 sequence (Q96LD8 whole entry): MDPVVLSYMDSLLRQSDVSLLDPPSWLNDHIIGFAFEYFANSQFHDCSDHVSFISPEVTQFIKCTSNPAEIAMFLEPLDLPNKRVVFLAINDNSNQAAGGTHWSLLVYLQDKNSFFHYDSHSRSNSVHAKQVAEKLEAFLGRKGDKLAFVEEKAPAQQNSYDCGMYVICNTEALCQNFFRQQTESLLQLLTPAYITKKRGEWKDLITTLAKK
# [16] = biological target: T4, Sentrin-specific protease 8; assay type: functional; remark: listed apart in the source
# [17] = Luminescence Cell-Based Dose Retest to Confirm Inhibitors of Cancer Stem Cells. [Related pubchem assays (depositor defined):AID2717, AID2721]; assay type: functional; details: Homo sapiens
# cells [18] = assay: cells
# [19] = biological target: T4, Sentrin-specific protease 8; assay: inhibition of human SENP8 cleavage activity – biochemical, luminescence, SAR follow-up (AID 504501); assay type: functional
# [20] = biological target: T5, Sentrin-specific protease 6 (Homo sapiens, UniProt Q9GZR1); assay: SAR Analysis of small molecule inhibitors of Sentrin-specific protease 6 (SENP6) using a Luminescent assay. [Related pubchem assays (depositor defined):AID2582, AID2599]; assay type: functional
# T5 sequence (Q9GZR1 whole entry): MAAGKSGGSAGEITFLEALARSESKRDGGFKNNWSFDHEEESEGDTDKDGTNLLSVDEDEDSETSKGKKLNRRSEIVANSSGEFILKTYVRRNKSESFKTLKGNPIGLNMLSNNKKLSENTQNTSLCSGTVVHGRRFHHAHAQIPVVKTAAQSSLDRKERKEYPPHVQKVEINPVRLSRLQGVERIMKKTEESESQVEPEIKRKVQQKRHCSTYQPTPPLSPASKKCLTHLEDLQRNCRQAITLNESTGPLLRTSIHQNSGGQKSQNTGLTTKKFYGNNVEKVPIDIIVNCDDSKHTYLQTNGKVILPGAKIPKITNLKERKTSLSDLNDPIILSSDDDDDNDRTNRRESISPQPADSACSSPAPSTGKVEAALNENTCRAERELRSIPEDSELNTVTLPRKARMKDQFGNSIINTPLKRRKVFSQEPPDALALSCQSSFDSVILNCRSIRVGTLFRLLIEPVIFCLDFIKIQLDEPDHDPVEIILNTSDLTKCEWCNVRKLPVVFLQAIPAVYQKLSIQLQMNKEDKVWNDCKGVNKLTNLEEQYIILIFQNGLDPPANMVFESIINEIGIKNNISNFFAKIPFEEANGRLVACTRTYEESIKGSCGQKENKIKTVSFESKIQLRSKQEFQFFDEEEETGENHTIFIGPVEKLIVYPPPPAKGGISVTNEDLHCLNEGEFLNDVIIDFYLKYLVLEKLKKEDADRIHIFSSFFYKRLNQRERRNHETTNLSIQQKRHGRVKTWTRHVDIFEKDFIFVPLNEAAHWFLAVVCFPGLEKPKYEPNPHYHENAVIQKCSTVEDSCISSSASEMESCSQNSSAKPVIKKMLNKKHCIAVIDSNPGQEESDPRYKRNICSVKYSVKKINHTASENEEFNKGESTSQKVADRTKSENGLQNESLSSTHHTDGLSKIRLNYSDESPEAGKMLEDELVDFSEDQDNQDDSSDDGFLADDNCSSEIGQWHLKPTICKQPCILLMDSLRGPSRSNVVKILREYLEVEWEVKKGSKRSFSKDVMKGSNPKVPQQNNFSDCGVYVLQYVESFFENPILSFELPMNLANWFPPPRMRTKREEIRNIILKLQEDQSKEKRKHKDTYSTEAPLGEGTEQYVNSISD
# Caspase-3 = biological target: T6, Caspase-3 (Homo sapiens, UniProt P42574); assay: SAR Analysis of small molecule inhibitors of Sentrin-specific proteases (SENPs) using a Caspase-3 Selectivity assay. [Related pubchem assays (depositor defined):AID2540, AID2599, AID434973, AID489001]; assay type: functional
# T6 sequence (P42574 whole entry): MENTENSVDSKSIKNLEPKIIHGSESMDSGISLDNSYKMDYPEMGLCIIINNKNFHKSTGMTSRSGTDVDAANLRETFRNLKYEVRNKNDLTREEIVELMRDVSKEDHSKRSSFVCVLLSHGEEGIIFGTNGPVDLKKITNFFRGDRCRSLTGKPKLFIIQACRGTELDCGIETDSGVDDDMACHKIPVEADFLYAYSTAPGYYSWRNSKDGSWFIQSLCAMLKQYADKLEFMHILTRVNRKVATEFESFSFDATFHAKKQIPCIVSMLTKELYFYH
# [21] = biological target: T7, Low molecular weight phosphotyrosine protein phosphatase (Homo sapiens, UniProt P24666); assay type: functional; details: read-out: IC50_Mean;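 further: Dose-response confirmation assay measuring inhibition of LMPTP enzyme activity by fluorescence intensity read-out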
# T7 sequence (P24666 whole entry): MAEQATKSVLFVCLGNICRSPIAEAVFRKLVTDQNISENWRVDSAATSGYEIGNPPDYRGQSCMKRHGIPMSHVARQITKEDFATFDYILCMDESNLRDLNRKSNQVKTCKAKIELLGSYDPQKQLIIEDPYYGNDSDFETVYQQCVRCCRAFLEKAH
# [22] = general cell-killing toxicity readout – plate reader, dry powder samples, cytotoxicity control for PAX8 inhibitor project, dose response (AID 743021); assay type: functional, cell-based
# Paired box protein Pax-8 = Paired box protein Pax-8 (Homo sapiens, UniProt Q06710); assay: PAX8 transcriptional activity inhibition in RMG-I – RMG-I cells, luciferase, cherry-pick, dose response (AID 687027); assay type: functional, cell-based;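 further: luciferase reporter driven by Pax8 target thyroperoxidase promoter measured by SteadyGlo luminescence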
# Sequence of Paired box protein Pax-8 (Q06710 whole entry): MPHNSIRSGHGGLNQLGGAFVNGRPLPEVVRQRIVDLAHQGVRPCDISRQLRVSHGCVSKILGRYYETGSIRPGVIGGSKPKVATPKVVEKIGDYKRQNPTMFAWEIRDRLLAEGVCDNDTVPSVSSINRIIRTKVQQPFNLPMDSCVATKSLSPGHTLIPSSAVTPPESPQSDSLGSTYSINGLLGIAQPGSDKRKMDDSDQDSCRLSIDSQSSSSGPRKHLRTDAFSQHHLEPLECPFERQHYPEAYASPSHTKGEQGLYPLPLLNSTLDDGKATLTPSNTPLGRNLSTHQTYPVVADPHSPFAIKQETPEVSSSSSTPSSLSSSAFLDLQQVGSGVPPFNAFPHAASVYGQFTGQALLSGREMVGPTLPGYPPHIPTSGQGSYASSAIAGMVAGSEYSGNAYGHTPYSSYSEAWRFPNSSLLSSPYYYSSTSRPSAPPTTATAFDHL
# [23] = biological target: T8, Nuclear receptor subfamily 0 group B member 1 (Homo sapiens, UniProt P51843); assay type: functional, cell-based;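 further: HEK293T cells transfected with SF-1 and DAX-1 plus StAR promoter luciferase reporter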
# T8 sequence (P51843 whole entry): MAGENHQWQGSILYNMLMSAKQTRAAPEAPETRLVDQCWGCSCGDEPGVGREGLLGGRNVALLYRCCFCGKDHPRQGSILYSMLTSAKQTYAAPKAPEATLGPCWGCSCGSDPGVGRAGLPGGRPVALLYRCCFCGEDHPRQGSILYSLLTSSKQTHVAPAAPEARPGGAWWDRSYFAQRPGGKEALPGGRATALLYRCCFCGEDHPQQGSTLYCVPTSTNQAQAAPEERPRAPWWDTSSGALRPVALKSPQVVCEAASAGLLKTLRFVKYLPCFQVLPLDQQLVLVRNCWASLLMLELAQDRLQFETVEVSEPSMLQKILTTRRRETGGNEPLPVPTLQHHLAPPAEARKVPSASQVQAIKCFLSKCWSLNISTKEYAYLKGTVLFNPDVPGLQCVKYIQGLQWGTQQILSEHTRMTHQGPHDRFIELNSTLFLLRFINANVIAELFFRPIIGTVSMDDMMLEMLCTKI
# cells [24] = assay type: functional, cell-based; remark: listed apart in the source
# H4 = assay: Luminescence Cell-Based Dose Response HTS to Identify Activators of 5'UTR Stem-Loop Driven Prion Protein mRNA Translation in H4 Neuroglioblastoma Cells. [Related pubchem assays: 1829 (Project Summary), 1814 (Primary HTS)]; assay type: functional; details: Homo sapiens
compound,measurement,setting,value
CCc1cc(Cl)c(OC)c(C(=O)NC[C@@H]2CCCN2CC)c1O,AC50,Escherichia coli,19.4 µM (active)
CCOC(=O)c1oc2cccc(OCC(O)CNC(C)C)c2c1C (stereo unspecified),EC50,[1],47.7 µM (active)
same,IC50,[2],0.843 µM (active)
same,EC50,[3],45.6 µM (active)
Cc1ccc(-c2nc3ccccc3nc2NN)cc1,EC50,cells [4],7.52 µM (active)
same,IC50,[2],> 10 µM (inactive)
same,EC50,cells [5],> 350 µM (not active)
O=C(NC1CCCCC1)Oc1cc2oc(=O)sc2cc1Cl,IC50,[6],3.78 µM (active)
same,IC50,[7],3.54 µM (active)
same,IC50,[8],11.8 µM (active)
COc1ccc(/C=C(/NC(=O)c2cccc([N+](=O)[O-])c2)C(=O)O)cc1OC,AC50,Escherichia coli,18.5 µM (active)
COc1ccc(-c2c[nH]nc2-c2ccc(OCc3ccccc3)cc2O)cc1OC,IC50,[9],> 69.5 µM (inactive)
same,IC50,[10],> 69.5 µM (inactive)
O=C(Nc1ccc2c(c1)C(=O)NC2=O)c1ccc2ncsc2c1,IC50,[11],8.45 µM (active)
same,IC50,[12],> 66.6 µM (inactive)
COc1ccc(-c2nnc3oc(O)cc(C)c2-3)cc1,IC50,[2],1.88 µM (active)
same,IC50,[13],1.06 µM (active)
same,IC50,[14],> 100 µM (not active)
COc1c(F)c(F)cc2c(=O)c(C(=O)O)cn(C3CC3)c12,AC50,Escherichia coli,3.88 µM (active)
CCOC(=O)c1ccc(N2C(=O)Cc3ccccc3C2=O)cc1,IC50,[15],> 100 µM (inactive)
same,IC50,[16],12 µM (active)
Cc1cccc(OCCNC(=O)c2cccc(Oc3ccc(C(F)(F)F)cc3[N+](=O)[O-])c2)c1,IC50,[9],> 69.5 µM (inactive)
same,AC50,[17],23.5 µM (active)
same,IC50,[10],27.5 µM (inactive)
CC(=O)c1ccc(-n2nnnc2SCC(=O)N2CCc3ccccc3C2)cc1,IC50,[15],10.2 µM (active)
same,IC50,[16],8.03 µM (active)
CC(=O)CSc1nc(O)c(C#N)c(-c2cccs2)n1,IC50,cells [18],> 138 µM (inactive)
COC(=O)c1ccc(NC(=O)c2ccc3c(c2)OCO3)cc1,IC50,[19],> 99 µM (inactive)
same,IC50,[20],> 99 µM (inactive)
same,IC50,Caspase-3,3.7 µM (active)
Cc1cc(N2CCN(C(C(=O)NC3CCCC3)c3ccc(-c4ccccc4)cc3)CC2)c2ccccc2n1 (stereo unspecified),IC50,[21],6.49 µM (active)
Cc1ccc(S(=O)(=O)Nc2ccc3c(c2)CC(=O)N([C@@H](C)CO)C[C@H](C)[C@@H](CN(C)C(=O)Nc2ccc(C(F)(F)F)cc2)O3)cc1,AC50,[22],43.1 µM (active)
same,AC50,Paired box protein Pax-8,30.4 µM (active)
O=C(/N=c1\nc2ccccn2s1)c1ccccc1,IC50,[23],> 67.5 µM (inactive)
same,IC50,cells [24],> 67.5 µM (inactive)
same,EC50,H4,5.73 µM (active)
